Measured values taken from patent publication US9062051B2, “Compounds and pharmaceutical compositions thereof for the treatment of proliferative disorders” (GALAPAGOS NV, priority 2014, dated 2015).

Experiments:
EphA2 = biological target: T1, EphA2 (UniProt Ref: P29317) (Homo sapiens, UniProt P29317); test: EphA2 assay (Reaction Biology HotSpot radioactive kinase assay); format: biochemical; conditions: ATP 10 μM; read-out: EphA2 potency IC50
T1 construct: purchased Reaction Biology
Description: (§1) Inhibition of EphA2 (UniProt Ref: P29317) by a test compound is determined by a commercially available Reaction Biology proprietary nanoliter radioactive HotSpot^SM assay (Reaction Biology, One great valley parkway, Suite 2, Malvern Pa., 19355, USA). The principle of the assay consists of the measurement of incorporated ^33P into poly[Glu:Tyr] (4:1) (0.2 mg/mL) when the substrate is phosphorylated by the enzyme using [^33P]-γ-ATP and ATP (10 μM).
To determine the IC50, a serial dilution of compound is tested starting from 10, or 3 μM (highest dilution) with a 1/3 dilution.

Recombinant EphB2 = biological target: T2, Recombinant EphB2 (Homo sapiens, UniProt P29323); test: EphB2 assay (33P incorporation into poly GT, filter plate); format: biochemical; conditions: read-out: EphB2 potency IC50
T2 construct: purchased Carna 08-129
T2 sequence (P29323 19-986 isoform P29323-2 limits assumed): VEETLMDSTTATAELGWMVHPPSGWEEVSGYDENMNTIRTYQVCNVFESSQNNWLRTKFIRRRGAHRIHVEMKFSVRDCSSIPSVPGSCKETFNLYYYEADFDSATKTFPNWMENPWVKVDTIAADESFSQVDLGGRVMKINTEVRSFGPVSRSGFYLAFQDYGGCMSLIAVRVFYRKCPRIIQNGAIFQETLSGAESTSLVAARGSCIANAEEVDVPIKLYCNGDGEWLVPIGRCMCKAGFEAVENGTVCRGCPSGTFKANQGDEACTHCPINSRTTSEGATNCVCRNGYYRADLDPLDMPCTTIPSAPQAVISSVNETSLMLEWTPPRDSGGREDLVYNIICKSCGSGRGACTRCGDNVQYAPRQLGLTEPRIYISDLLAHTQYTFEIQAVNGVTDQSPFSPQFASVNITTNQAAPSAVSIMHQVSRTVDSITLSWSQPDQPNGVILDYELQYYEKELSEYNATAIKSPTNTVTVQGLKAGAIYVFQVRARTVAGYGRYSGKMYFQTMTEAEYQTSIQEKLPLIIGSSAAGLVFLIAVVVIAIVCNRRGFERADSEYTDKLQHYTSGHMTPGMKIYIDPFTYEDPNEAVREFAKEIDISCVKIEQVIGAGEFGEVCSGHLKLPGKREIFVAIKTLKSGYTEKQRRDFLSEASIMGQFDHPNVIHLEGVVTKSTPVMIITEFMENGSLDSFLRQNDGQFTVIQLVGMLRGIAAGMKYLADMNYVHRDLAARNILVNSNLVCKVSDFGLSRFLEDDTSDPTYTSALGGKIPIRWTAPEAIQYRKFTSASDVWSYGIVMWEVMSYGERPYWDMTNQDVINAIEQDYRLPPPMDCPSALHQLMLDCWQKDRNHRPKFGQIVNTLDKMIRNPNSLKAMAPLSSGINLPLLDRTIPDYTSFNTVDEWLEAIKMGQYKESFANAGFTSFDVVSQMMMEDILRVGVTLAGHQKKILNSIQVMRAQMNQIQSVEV
Description: The principle of the assay consists of the measurement of incorporated ^33P into the substrate poly GT when phosphorylated by the enzyme EphB2 using [^33P]-γ-ATP and ATP. Unincorporated ^33P is removed by loading the samples on a filter plate (using a harvester, Perkin Elmer) and 6 subsequent washing steps. ^33P incorporated in polyGT is measured on a Topcount after addition of microscint to the filter plates (Perkin Elmer).
Recombinant EphB2 (Carna Cat#08-129, 0.6 ng per well) was incubated with 0.05 mg/mL Poly(Glu,Tyr)sodium salt (4:1), MW 20 000-50 000 (Sigma catalog number P0275) in kinase reaction buffer (10 mM MOPS pH 7.2, 5 mM DTT, 0.01% Triton-X100, 5 mM MnCl2, 0.5 mM Na3VO4, 5 mM beta-glycerolphosphate), 0.5 μM non-radioactive ATP, 0.25 μCi/25 μl ^33P-gamma-ATP (Perkin Elmer, catalog number NEG602K) final concentrations with or without 5 μL containing test compound or vehicle (DMSO, 1% final concentration), in a total volume of 25 μL, in a polypropylene 96-well plate (Greiner, V-bottom). After 45 min at 30° C., reactions were stopped by adding of 25 μL/well of 150 mM phosphoric acid. The experiment was then conducted as described for EphA7. The ability of a test compound to inhibit the kinase activity was determined using counts per minutes (cpm) measured by the Topcount as:
Cpm (cpd): cpm determined for sample with test compound present
Cpm (control): cpm determined for sample with positive control inhibitor (10 μM staurosporine)
Cpm (vehicle): cpm determined in the presence of vehicle (1% DMSO)
Dose dilution series were prepared for the compounds enabling the testing of dose-response effects in the EphB2 assay and the calculation of the IC50 for each compound. Each compound was routinely tested at concentration of 20 μM followed by a 1/5 serial dilution, 10 points in a final concentration of 1% DMSO. When potency of compound series increased, more dilutions may be prepared and/or the top concentration may be lowered (e.g. 5 μM, 1 μM).

EphB4 = biological target: T3, EphB4 (UniProt Ref: Q541P7) (Homo sapiens, UniProt P54760); test: EphB4 assay (Reaction Biology HotSpot radioactive kinase assay); format: biochemical; conditions: ATP 10 μM; read-out: EphB4 potency IC50
T3 construct: purchased Reaction Biology
T3 sequence (P54760 16-987): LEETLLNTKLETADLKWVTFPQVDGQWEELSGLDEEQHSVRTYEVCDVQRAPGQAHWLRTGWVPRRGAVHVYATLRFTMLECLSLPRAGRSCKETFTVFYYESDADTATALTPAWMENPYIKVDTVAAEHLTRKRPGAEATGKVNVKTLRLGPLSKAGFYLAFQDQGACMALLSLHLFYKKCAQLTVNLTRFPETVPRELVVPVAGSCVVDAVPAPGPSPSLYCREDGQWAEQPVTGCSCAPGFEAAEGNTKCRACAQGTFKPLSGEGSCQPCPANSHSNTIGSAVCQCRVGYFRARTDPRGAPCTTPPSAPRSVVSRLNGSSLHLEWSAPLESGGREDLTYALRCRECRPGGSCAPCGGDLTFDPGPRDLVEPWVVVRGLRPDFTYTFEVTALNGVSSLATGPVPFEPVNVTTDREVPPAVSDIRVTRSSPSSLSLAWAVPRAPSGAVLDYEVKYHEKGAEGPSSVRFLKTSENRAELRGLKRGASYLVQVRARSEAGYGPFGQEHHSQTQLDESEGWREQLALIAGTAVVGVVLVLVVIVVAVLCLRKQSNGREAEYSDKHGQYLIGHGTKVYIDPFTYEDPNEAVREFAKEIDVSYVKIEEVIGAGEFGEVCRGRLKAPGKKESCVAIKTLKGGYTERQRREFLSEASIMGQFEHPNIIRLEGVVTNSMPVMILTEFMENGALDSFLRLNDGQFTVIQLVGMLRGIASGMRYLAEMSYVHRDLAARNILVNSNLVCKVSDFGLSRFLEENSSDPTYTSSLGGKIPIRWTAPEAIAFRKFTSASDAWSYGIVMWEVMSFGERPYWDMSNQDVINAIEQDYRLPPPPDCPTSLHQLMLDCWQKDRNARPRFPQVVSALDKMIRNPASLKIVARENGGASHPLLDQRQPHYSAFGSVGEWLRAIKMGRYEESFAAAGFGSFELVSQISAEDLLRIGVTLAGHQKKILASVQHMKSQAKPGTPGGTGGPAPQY
Description: as §1, with “EphB4” for “EphA2”, “Q541P7)” for “P29317)”
To determine the IC50, a serial dilution of compound is tested starting from 10 or 3 μM (highest dilution) with a 1/3 dilution.

[1] = Pharmacokinetics in rats (exposure, AUC); format: in vivo, male Sprague Dawley rats; conditions: male, Sprague Dawley, rat, plasma, po, 5 mg/kg
Description: This study is performed with 6 naïve male Sprague Dawley rats (180-200 g, 6-8 weeks old). Rats are obtained from Janvier, Le Genest St Isle, France.
A controlled environment is maintained in the room with optimal conditions of approximately 15 air changes per hour, a temperature of 22±2 C, a relative humidity of 30-70% and a 12 hour light/dark cycle
Pelleted diet for rodents (UAR A04C-10) is used and is provided ad libitum. Before p.o. dosing, the animals are deprived of food for at least 12 hours before compound administration and 4 hours after administration. All animals had free access to tap water.
Two days before the dosing day, the implantation of a catheter in the jugular vein is done under gaseous anaesthesia with isoflurane.
Rats are dosed intravenously with test compound via a bolus in the tail vein with a dose level of 1 mg/kg. […]
The i.v. bolus and the oral administration are given a dose volume of 5 mL/kg.
From all animals approximately 200 μL blood samples are collected via the catheter and placed into tubes containing Li-heparin as anticoagulant. Blood samples are collected at the various time points (i.v.: 0.05, 0.25, 0.5, 1, 3, 5, 8 and 24 hours after dosing; p.o.: 0.25, 0.5, 1, 3, 5, 8 and 24 hours after dosing).
Blood is kept on ice. Within 1 hour after sampling, blood is centrifuged at 5,000 rpm for 10 min at 4° C. Immediately after centrifugation, the resulting plasma samples are collected into polypropylene tubes and are kept frozen at −20° C. pending bioanalysis.
Plasma samples are assayed by LC-MS/MS. Plasma proteins are precipitated with an excess of methanol containing the internal standard and the corresponding supernatant is injected on a C18 column. Analytes are eluted out the HPLC system by increasing the percentage of the organic mobile phase. An API4000 mass spectrometer (AB Sciex™) is used for the detection and quantification.
Pharmacokinetic parameters are calculated by non-compartmental analysis using WinNonlin® software (Pharsight, version 5.2).

MDA-MB-231 cells = test: Mouse xenograft model of human triple negative breast cancer (MDA-MB-231), tumorous growth inhibition; format: in vivo, Female BALB/c Mice; conditions: day 26, 20 mg/kg, ip, 3x/ week
Description: Animals (Female BALB/c Mice, Harlan, 51930, 18-20 g) are provided with filtered tap water and standard chow ad libitum and maintained at 22±2° C. in 55±10% humidity on a 12 h light/dark cycle.
Paclitaxel used as a positive control is formulated by 1/3 dilution of commercial solution (Fresenius kabi, 871WF014/4) in saline.
The test compounds for po administration are formulated in 0.5% methylcellulose (VWR, ref AX021233).
MDA-MB-231 cell line is obtained from the ATCC collection (ref HTB-26). The cells are then cultured in RPMI 1640 medium supplemented with […] (Gibco 15140-148) and 1% (v/v) L-Glutamine 200 mM (Gibco 25030-024) at 37° C. in a 5% CO2 incubator.
5 million MDA-MB-231 cells/mice in 0.1 mL of 50% Matrigel (BD biosciences, LDEV free 256235)+50% D-PBS 1× (Gibco 14190-086) are injected by subcutaneous route on the upper back of 120 mice. Prior to implantation, mice are anesthetized by intra-peritoneal injection with a 0.1 mL/10 g dose of anaesthetic solution (18 mL NaCl, 0.9%+0.5 mL xylazine, +1.5 mL ketamine. […]
Body weight, and tumor growth is recorded twice a week during the course of treatment.
After 26 days the treatment is stopped, in each group half of the mice are euthanized for tissue collection, and the other half is kept for a further 7 days, during which period body weight and tumour sized are measured.
In sacrificed mice, blood and tumours are collected, analysed, and the effect of the test compounds is compared with controls (vehicle and paclitaxel).
The values were obtained using the following calculations
Relative Tumor Volume (RTV):
Tumor Growth Inhibition (TGI) TGI=1−T/C

T1 sequence (P29317 24-976): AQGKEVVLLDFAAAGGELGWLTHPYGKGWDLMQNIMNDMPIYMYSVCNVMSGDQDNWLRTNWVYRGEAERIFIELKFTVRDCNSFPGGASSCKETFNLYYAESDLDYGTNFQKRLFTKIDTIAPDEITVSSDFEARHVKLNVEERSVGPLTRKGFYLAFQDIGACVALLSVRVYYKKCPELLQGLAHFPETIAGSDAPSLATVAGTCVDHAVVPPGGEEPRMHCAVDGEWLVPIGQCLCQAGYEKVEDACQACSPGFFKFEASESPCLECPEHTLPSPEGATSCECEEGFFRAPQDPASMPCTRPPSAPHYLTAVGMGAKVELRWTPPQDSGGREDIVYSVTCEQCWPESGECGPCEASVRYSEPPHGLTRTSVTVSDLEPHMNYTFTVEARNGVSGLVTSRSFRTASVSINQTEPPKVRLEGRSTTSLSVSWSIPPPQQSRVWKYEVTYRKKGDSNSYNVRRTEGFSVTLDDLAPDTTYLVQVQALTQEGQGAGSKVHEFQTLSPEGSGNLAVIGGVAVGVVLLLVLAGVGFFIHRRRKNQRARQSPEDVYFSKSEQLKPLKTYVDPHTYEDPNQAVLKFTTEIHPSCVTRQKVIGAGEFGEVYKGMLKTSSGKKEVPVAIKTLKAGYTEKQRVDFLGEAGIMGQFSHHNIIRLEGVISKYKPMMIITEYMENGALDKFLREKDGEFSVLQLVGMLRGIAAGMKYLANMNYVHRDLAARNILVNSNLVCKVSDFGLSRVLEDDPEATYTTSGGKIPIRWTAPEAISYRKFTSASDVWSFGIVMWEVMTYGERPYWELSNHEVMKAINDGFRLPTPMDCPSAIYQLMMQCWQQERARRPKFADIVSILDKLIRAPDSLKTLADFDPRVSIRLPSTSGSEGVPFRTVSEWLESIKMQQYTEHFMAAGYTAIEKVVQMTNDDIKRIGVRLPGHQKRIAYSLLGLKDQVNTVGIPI

## Cc1cc(C)cc(C(=O)Nc2ccc(C)c(-c3ccc4c(C(O)CN5CCOCC5)n[nH]c4n3)c2)c1 (stereo not drawn) [Compound 7, N-{3-[3-(1-Hydroxy-2-morpholin-4-yl-ethyl)-1H-pyrazolo[3,4-b]pyridin-6-yl]-4-methyl-phenyl}-3,5-dimethyl-benzamide]
EphA2
  IC50: 25 to 50 nM
Recombinant EphB2
  IC50: 0.01 to 25 nM
EphB4
  IC50: 0.01 to 25 nM

## CCc1n[nH]c2nc(-c3cc(NC(=O)c4cc(OC)cc(OC)c4)ccc3C)ccc12 [Compound 8, N-[3-(3-Ethyl-1H-pyrazolo[3,4-b]pyridin-6-yl)-4-methyl-phenyl]-3,5-dimethoxy-benzamide]
[1]
  AUC: 2000 ng·h/mL

## COc1cc(OC)cc(C(=O)Nc2ccc(C)c(-c3ccc4c(CO)n[nH]c4n3)c2)c1 [Compound 10, N-[3-(3-Hydroxymethyl-1H-pyrazolo[3,4-b]pyridin-6-yl)-4-methyl-phenyl]-3,5-dimethoxy-benzamide]
EphA2
  IC50: 0.01 to 25 nM
[1]
  AUC: 274 ng·h/mL

## CC(=O)O[C@H]1C(=O)[C@@]2(C)[C@H]([C@H](OC(=O)c3ccccc3)[C@]3(O)C[C@H](OC(=O)[C@H](O)[C@@H](NC(=O)c4ccccc4)c4ccccc4)C(C)=C1C3(C)C)[C@]1(OC(C)=O)CO[C@@H]1C[C@@H]2O [Paclitaxel, paclitaxel]
MDA-MB-231 cells
  RTV (Relative Tumor Volume): 2.06
  T/C (Tumour Vs Control): 24.31%
  TGI (Tumor Growth Inhibition): 75.69%
